Measured values taken from patent US9290457B2, “Substituted dihydropyrimidinones and their use as inhibitors of neutrophil elastase activity” (Boehringer Ingelheim International GmbH, priority 2014, dated 2016).
≈ marks a conversion by molar mass, not a printed value.

How the values were obtained:
[1] = system: human hepatocytes; experiment: Metabolic stability with human hepatocytes; type: in vitro ADME; conditions: 1 μM compound, well stirred model
Procedure: Assay for the Determination of Metabolic Stability with Human Hepatocytes
The metabolic degradation of the test compound is assayed in a human hepatocyte suspension. Human hepatocytes (typically cryopreserved) are incubated in an appropriate buffer system (e.g. Dulbecco's modified eagle medium plus 3.5 μg glucagon/500 mL, 2.5 mg insulin/500 mL and 3.75 mg/500 mL hydrocortison) containing 5% species serum. Following a (typically) 30 min preincubation in an incubator (37° C., 10% CO2), 5 μl of test compound solution (80 μM; from 2 mM stock solution in DMSO diluted 1:25 with medium) are added into 395 μl hepatocyte suspension (cell density in the range 0.25-5*10^6 cells/mL, typically 1*10^6 cells/mL; final concentration of test compound 1 μM, final DMSO concentration 0.05%). The cells are incubated for six hours (incubator, orbital shaker) and samples (25 μl) are taken at 0, 0.5, 1, 2, 4 and 6 hours. Samples are transferred into acetonitrile and pelleted by centrifugation (5 min) The supernatant is transferred to a new 96-deepwell plate, evaporated under nitrogen and resuspended. The decline of parent compound is analyzed by LC-MS/MS.
The intrinsic clearance CL_[…] is calculated as follows: CL_[…]=Dose/AUC=(Co/CD)/(AUD+clast/k)*1,000/60 (Co: initial concentration in the incubation [μM], CD: cell density of vital cells [10^6 cells/mL], AUD: area under the data [μM*h], clast: concentration of last data point [μM], k: slope of the regression line for parent decline [h^−1])
The calculated in vitro hepatic intrinsic clearance Q h can be scaled up to the intrinsic in vivo hepatic clearance and used to predict hepatic in vivo blood clearance (CL) by the use of a liver model (well stirred model): CL_[…]_INVIVO[ml/min/kg]=(CL_[…][μL/min/10^6cells]*hepatocellularity[10^6cells/g liver]*liver factor[g/kg bodyweight])/1,000 CL[ml/min/kg]=CL_[…]_INVIVO[ml/min/kg]*hepatic blood flow [ml/min/kg]/(CL_[…]_INVIVO[ml/min/kg]+hepatic blood flow[ml/min/kg]) Qh[%]=CL[ml/min/kg]/hepatic blood flow[ml/min/kg]) (Hepatocellularity, human: 120*10^6 cells/g liver; liver factor, human: 25.7 g/kg bodyweight; blood flow, human: 21 ml/(min*kg)) Based on this assay.
The calculated in vitro hepatic intrinsic clearance values of selected compounds in the metabolic stability assay with human hepatocytes described above are listed in Table 4.

[2] = target: neutrophil elastase (Homo sapiens (Human), UniProt P08246); experiment: Neutrophil elastase inhibitory activity in human plasma; type: biochemical; conditions: zymosan-stimulated human plasma, substrate MeOSuc-Ala-Ala-Pro-Val-AMC
Procedure: Assay for the Determination of Neutrophil Elastase Inhibitory Activity in Human Plasma
Citrated blood from human healthy donors is mixed with zymosan suspension and incubated at room temperature. This leads to the stimulation of neutrophils and the release of neutrophil elastase into the plasma. The stimulated blood is centrifuged to generate the neutrophil elastase enriched plasma.
Preparation of Zymosan Working Solution:
• A single 45 ml blood sample is taken into a 50 ml tube containing citrate (3.13%, 5 mL) and the tube is gently inverted 4 times. • Immediately after blood sampling, zymosan working solution (5 mL) is added. • After the addition of zymosan working solution, the tubes are capped, mixed gently and incubated at 22° C. for 15 min on a shaker at 20 rpm. • Make 10 ml aliquots after the incubation time. • Centrifuge the 15 ml tubes at 800 g for 15 min at 4° C. in a Jouan centrifuge. • Harvest the plasma and make 1-5 ml aliquots. • Store the plasma at −80° C.
Various concentrations of the neutrophil elastase inhibitor are incubated with plasma. Subsequently, the enzyme activity is measured using the fluorogenic substrate MeOSuc-Ala-Ala-Pro-Val-AMC (Bachem Cat. No. I-1270, substrate concentration: 250 μM, pH 7.5, 25 mM TRIS buffer, 250 mM NaCl) in analogous fashion as described for the human neutrophil assay. A dose response curve is generated to calculate the EC50 of the inhibitor. The analysis of the data is performed by the calculation of the percentage of fluorescence in the presence of the test compound compared to the fluorescence of the vehicle control after subtracting the background fluorescence: An inhibitor of the neutrophil elastase enzyme will give values between 100% control (no inhibition) and 0% control (complete inhibition).

[3] = Aqueous solubility; type: physicochemical; conditions: McIlvaine buffer pH 6.8, 2.5% DMSO; for solubility at 24 h: McIlvaine buffer with 2.5% DMSO, aqueous buffer, kinetic from dmso stock; for Aqueous solubility: 24 h
Procedure: Assay for Determination of Aqueous Solubility
Starting from a 10 mM DMSO stock solution, aliquots are diluted with acetonitrile/water (1/1) and McIlvaine buffer pH 6.8, respectively. After 24 h of shaking, the solutions or suspensions are filtered and analyzed by LC-UV. The amount dissolved in buffer is compared to the amount dissolved in the acetonitrile/water (1/1) solution. Solubility is measured from 0.001 to 0.125 mg/ml at a DMSO concentration of 2.5%. If more than 90% of the compound is dissolved in buffer, the value is marked with “>”.

[4] = Metabolic stability with human liver microsomes; type: in vitro ADME; conditions: pooled human liver microsomes, 1 μM compound, 37° C.; for half-life at 1 μM: pH 7.6, read-out: t1/2 INVITRO
Procedure: Assay for the Determination of Metabolic Stability with Human Liver Microsomes
The metabolic degradation of the test compound is assayed at 37° C. with pooled human liver microsomes. The final incubation volume of 100 μl per time point contains TRIS buffer pH 7.6 (0.1 M), magnesium chloride (5 mM), microsomal protein (1 mg/ml) and the test compound at a final concentration of 1 μM. Following a short preincubation period at 37° C., the reactions are initiated by addition of beta-nicotinamide adenine dinucleotide phosphate, reduced form (NADPH, 1 mM) and terminated by transferring an aliquot into acetonitrile after different time points. Additionally, the NADPH-independent degradation is monitored in incubations without NADPH, terminated at the last time point. The [%] remaining test compound after NADPH independent incubation is reflected by the parameter c(control) (metabolic stability). The quenched incubations are pelleted by centrifugation (10,000 g, 5 min) An aliquot of the supernatant is assayed by LC-MS/MS for the amount of parent compound.
The half-life (t1/2 INVITRO) is determined by the slope of the semilogarithmic plot of the concentration-time profile. The intrinsic clearance (CL_[…]) is calculated by considering the amount of protein in the incubation: CL_[…][μl/min/mg protein]=(ln 2/(half-life[min]*protein content[mg/ml]))*1,000.
The half-life (t1/2 INVITRO) values of selected compounds in the metabolic stability assay human liver microsomes described above are listed in Table 3.

Chain of neutrophil elastase (P08246 30-267): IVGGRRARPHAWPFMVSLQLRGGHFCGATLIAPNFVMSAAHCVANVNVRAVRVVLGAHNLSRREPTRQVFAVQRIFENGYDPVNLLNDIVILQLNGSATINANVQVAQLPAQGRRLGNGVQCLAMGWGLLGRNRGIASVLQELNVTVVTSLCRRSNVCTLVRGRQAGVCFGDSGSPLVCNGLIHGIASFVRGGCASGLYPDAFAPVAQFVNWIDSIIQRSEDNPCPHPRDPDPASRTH

`CC(=O)C1=C(C)N(c2cccc(C(F)(F)F)c2)C(=O)N(C)[C@@H]1c1ccc(C#N)cc1-c1ccn(C)c(=O)c1` [Example 17, 4-[(R)-5-Acetyl-3,6-dimethyl-2-oxo-1-(3-trifluoromethyl-phenyl)-1,2,3,4-tetrahydro-pyrimidin-4-yl]-3-(1-methyl-2-oxo-1,2-dihydro-pyridin-4-yl)-benzonitrile] showed a Qh [1] of 6%, an EC50 [2] of 5 nM and a solubility at 24 h [3] of 62 µg/mL (≈ 119 µM). For the same compound, the half-life at 1 μM [4] was > 130 min.

With `CC(=O)C1=C(C)N(c2cccc(C(F)(F)F)c2)C(=O)N(C)[C@@H]1c1ccc(C#N)cc1-c1ccc(=O)n(C)c1` [Example 16, 4-[(R)-5-Acetyl-3,6-dimethyl-2-oxo-1-(3-trifluoromethyl-phenyl)-1,2,3,4-tetrahydro-pyrimidin-4-yl]-3-(1-methyl-6-oxo-1,6-dihydro-pyridin-3-yl)-benzonitrile] the Qh [1] was 5%, the EC50 [2] was 1 nM and the solubility at 24 h [3] was 73 µg/mL (≈ 140 µM). For the same compound, the half-life at 1 μM [4] was > 130 min.

`CC(=O)C1=C(C)N(c2cccc(C(F)(F)F)c2)C(=O)N(C)C1c1ccc(C#N)cc1C(=O)NCCF` (centres unmarked) [Example 1.10] gave a Qh [1] of 27%, an EC50 [2] of 1 nM and an Aqueous solubility [3] of 0.066 mg/mL. The “t1/2 INVITRO” value [4] was >130 min.

Compound `CC(=O)C1=C(C)N(c2cccc(C(F)(F)F)c2)C(=O)N(C)C1c1ccc(C#N)cc1C(=O)NCC(C)(C)O` (centres unmarked) [Example 1.22] has a Qh [1] of 15%, an EC50 [2] of 2 nM and a solubility at 24 h [3] of 65 µg/mL (≈ 123 µM). The half-life at 1 μM [4] was > 130 min.

`CC(=O)C1=C(C)N(c2cccc(C(F)(F)F)c2)C(=O)N(C)C1c1ccc(C#N)cc1C(=O)N1CCn2ncnc2C1` (centres unmarked) [Example 1.73] gave a Qh [1] of 19%, an EC50 [2] of 2 nM and a solubility at 24 h [3] of 73 µg/mL (≈ 130 µM). For the same compound, the half-life at 1 μM [4] was 120 min.

For `CNC(=O)c1cc(C#N)ccc1[C@@H]1C(C(C)=O)=C(C)N(c2cccc(C(F)(F)F)c2)C(=O)N1C` [Example 13.1], the Qh [1] was 16%, the EC50 [2] was 1 nM and the Aqueous solubility [3] was 0.051 mg/mL. For the same compound, the “t1/2 INVITRO” value [4] was >130 min.

Work on `CC(=O)C1=C(C)N(c2cccc(C(F)(F)F)c2)C(=O)N(C)C1c1ccc(C#N)cc1C(=O)NC1CC1` (centres unmarked) [Example 1.8] yielded a Qh [1] of 22%, an EC50 [2] of 1 nM and an Aqueous solubility [3] of 0.076 mg/mL. For the same compound, the “t1/2 INVITRO” value [4] was 110 min.

In the case of `CC(=O)C1=C(C)N(c2cccc(C(F)(F)F)c2)C(=O)N(C)C1c1ccc(C#N)cc1C(=O)NCC#N` (centres unmarked) [Example 1.6], the Qh [1] is reported as 25%, the EC50 [2] is reported as 1 nM and the Aqueous solubility [3] is reported as 0.070 mg/mL. For the same compound, the “t1/2 INVITRO” value [4] was 130 min.
